Laboratory results from ChEMBL document CHEMBL6153040, “Discovery of the salicylaldehyde-based compound DDO-02267 as a lysine-targeting covalent inhibitor of ALKBH5” (Eur J Med Chem, 2025).
Activity calls are given as the source filed them. The rule behind the calls is not given here.

Key:
RNA demethylase ALKBH5 [1] = molecular target: T1, RNA demethylase ALKBH5 (Homo sapiens, UniProt Q6P6C2); test: Inhibition of ALKBH5 (66 to 292 residues) (unknown origin) extracted from Escherichia coli BL21 (DE3) cells using m6A ssDNA as substrate measured after 6 hrs by fluorescence polarization assay
Target sequence in this assay (Q6P6C2 whole entry, the tested form may be a part): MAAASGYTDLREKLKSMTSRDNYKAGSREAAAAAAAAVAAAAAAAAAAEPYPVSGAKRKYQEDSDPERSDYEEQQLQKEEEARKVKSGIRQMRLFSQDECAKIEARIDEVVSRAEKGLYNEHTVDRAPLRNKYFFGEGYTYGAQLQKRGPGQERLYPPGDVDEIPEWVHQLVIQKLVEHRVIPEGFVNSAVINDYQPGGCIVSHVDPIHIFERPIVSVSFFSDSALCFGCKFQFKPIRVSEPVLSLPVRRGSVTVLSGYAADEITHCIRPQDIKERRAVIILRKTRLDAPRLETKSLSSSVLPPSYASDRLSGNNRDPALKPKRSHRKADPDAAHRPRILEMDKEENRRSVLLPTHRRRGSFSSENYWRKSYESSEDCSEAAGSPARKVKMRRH

RNA demethylase ALKBH5 [2] = molecular target: T1, RNA demethylase ALKBH5; test: Inhibition of ALKBH5 (66 to 292 residues) (unknown origin) extracted from Escherichia coli BL21 (DE3) cells using m6A ssDNA as substrate incubated for 2 hrs by TBE-PAGE based restriction enzyme digestion assay
Target sequence in this assay (Q6P6C2 2-394 limits assumed): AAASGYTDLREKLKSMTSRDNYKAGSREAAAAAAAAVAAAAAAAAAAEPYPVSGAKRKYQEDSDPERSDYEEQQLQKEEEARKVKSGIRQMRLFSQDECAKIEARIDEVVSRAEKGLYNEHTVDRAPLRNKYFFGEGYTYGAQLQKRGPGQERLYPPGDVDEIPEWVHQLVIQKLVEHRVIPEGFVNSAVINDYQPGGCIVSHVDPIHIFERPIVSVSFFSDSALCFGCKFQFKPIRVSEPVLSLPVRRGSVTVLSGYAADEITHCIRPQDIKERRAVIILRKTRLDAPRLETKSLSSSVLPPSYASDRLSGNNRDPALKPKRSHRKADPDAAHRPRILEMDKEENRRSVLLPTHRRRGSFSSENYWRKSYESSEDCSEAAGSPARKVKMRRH

RNA demethylase ALKBH5 [3] = molecular target: T1, RNA demethylase ALKBH5; test: Binding affinity to ALKBH5 (66 to 292 residues) (unknown origin) extracted from Escherichia coli BL21 (DE3) cells assessed as dissociation constant incubated for 1 hrs by MST analysis
Target sequence in this assay (Q6P6C2 whole entry, the tested form may be a part): as the sequence (Q6P6C2 whole entry, the tested form may be a part) above

RNA demethylase ALKBH5 [4] = molecular target: T1, RNA demethylase ALKBH5; test: Binding affinity to ALKBH5 (66 to 292 residues) (unknown origin) extracted from Escherichia coli BL21 (DE3) cells assessed as dissociation constant incubated for 4 hrs by MST analysis
Target sequence in this assay (Q6P6C2 whole entry, the tested form may be a part): as above

RNA demethylase ALKBH5 [5] = molecular target: T1, RNA demethylase ALKBH5; test: Inhibition of ALKBH5 (66 to 292 residues) (unknown origin) extracted from Escherichia coli BL21 (DE3) cells using m6A ssDNA as substrate at 1.25 to 10 uM incubated for 2 hrs in presence of 2-OG by TBE-PAGE based restriction enzyme digestion assay; conditions: dose 1.25-10 µM
Target sequence in this assay (Q6P6C2 2-394 limits assumed): as the sequence (Q6P6C2 2-394 limits assumed) above

RNA demethylase ALKBH5 [6] = molecular target: T1, RNA demethylase ALKBH5; test: Binding affinity to ALKBH5 (66 to 292 residues) (unknown origin) extracted from Escherichia coli BL21 (DE3) cells assessed as dissociation constant incubated for 3 hrs by MST analysis
Target sequence in this assay (Q6P6C2 whole entry, the tested form may be a part): as the sequence (Q6P6C2 whole entry, the tested form may be a part) above

RNA demethylase ALKBH5 [7] = molecular target: T1, RNA demethylase ALKBH5; test: Binding affinity to ALKBH5 (66 to 292 residues) (unknown origin) extracted from Escherichia coli BL21 (DE3) cells assessed as dissociation constant incubated for 5 hrs by MST analysis
Target sequence in this assay (Q6P6C2 whole entry, the tested form may be a part): as above

RNA demethylase ALKBH5 [8] = molecular target: T1, RNA demethylase ALKBH5; test: Binding affinity to ALKBH5 (66 to 292 residues) (unknown origin) extracted from Escherichia coli BL21 (DE3) cells assessed as dissociation constant incubated for 1.5 hrs by MST analysis
Target sequence in this assay (Q6P6C2 whole entry, the tested form may be a part): as above

RNA demethylase ALKBH5 [9] = molecular target: T1, RNA demethylase ALKBH5; test: Inhibition of ALKBH5 (66 to 292 residues) (unknown origin) demethylase activity extracted from Escherichia coli BL21 (DE3) cells at 200 uM preincubated for 3 hrs and measured after compound washout by small molecule dilution method
Target sequence in this assay (Q6P6C2 2-394 limits assumed): as the sequence (Q6P6C2 2-394 limits assumed) above

RNA demethylase ALKBH5 [10] = molecular target: T1, RNA demethylase ALKBH5; test: Inhibition of ALKBH5 (66 to 292 residues) (unknown origin) extracted from Escherichia coli BL21 (DE3) cells using m6A ssDNA as substrate measured immediately by fluorescence polarization assay
RNA demethylase ALKBH5 [11] = molecular target: T1, RNA demethylase ALKBH5; test: Inhibition of ALKBH5 (66 to 292 residues) (unknown origin) extracted from Escherichia coli BL21 (DE3) cells using m6A ssDNA as substrate measured after 2 hrs by fluorescence polarization assay
RNA demethylase ALKBH5 [12] = molecular target: T1, RNA demethylase ALKBH5; test: Inhibition of ALKBH5 (66 to 292 residues) (unknown origin) extracted from Escherichia coli BL21 (DE3) cells using m6A ssDNA as substrate measured after 1 hrs by fluorescence polarization assay

| SMILES | IC50 (RNA demethylase ALKBH5 [1]) [µM] | IC50 (RNA demethylase ALKBH5 [10]) [µM] | IC50 (RNA demethylase ALKBH5 [11]) [µM] | IC50 (RNA demethylase ALKBH5 [12]) [µM] | further results |
| --- | --- | --- | --- | --- | --- |
| N#Cc1ccccc1S(=O)(=O)NC(=O)c1cc(C(=O)O)ccn1 | > 200 | – | – | – | – |
| O=C(O)c1ccnc(C(=O)NS(=O)(=O)c2cccc3ccccc23)c1 | 12.7 | – | – | – | inhibition (RNA demethylase ALKBH5 [2]): Active; Kd (RNA demethylase ALKBH5 [3]): 58.7 µM; Kd (RNA demethylase ALKBH5 [4]): 42 µM; inhibition (RNA demethylase ALKBH5 [5]): inactive; Kd (RNA demethylase ALKBH5 [6]): 63.9 µM; Kd (RNA demethylase ALKBH5 [7]): 61.7 µM; Kd (RNA demethylase ALKBH5 [8]): 52.2 µM; inhibition (RNA demethylase ALKBH5 [9]): inactive |
| N#Cc1ccc(S(=O)(=O)NC(=O)c2cc(C(=O)O)ccn2)cc1 | 39.9 | – | – | – | – |
| O=C(OCc1ccc(C(F)(F)F)cc1)c1ccc(-c2cc3ncc(C(=O)c4c(O)ccc([N+](=O)[O-])c4O)cn3n2)cc1 | 4.06 | – | – | – | – |
| COc1ccccc1S(=O)(=O)NC(=O)c1cc(C(=O)O)ccn1 | > 200 | – | – | – | – |
| O=Cc1cc(S(=O)(=O)NC(=O)c2cc(C(=O)O)ccn2)ccc1O | – | 3.4 | 0.45 | 0.55 | – |
| O=C(O)c1ccnc(C(=O)NCc2ccccc2[N+](=O)[O-])c1 | > 200 | – | – | – | – |
| O=C(CCl)Nc1ccccc1S(=O)(=O)NC(=O)c1cc(C(=O)O)ccn1 | – | 18.4 | 10.8 | 12.5 | – |
| COc1ccc(S(=O)(=O)NC(=O)c2cc(C(=O)O)ccn2)cc1 | 19.1 | – | – | – | – |
| O=C(O)c1ccnc(C(=O)NS(=O)(=O)c2ccc(-c3ccccc3)cc2)c1 | 16.5 | – | – | – | – |
| C=CC(=O)Nc1cccc(S(=O)(=O)NC(=O)c2cc(C(=O)O)ccn2)c1 | – | 7.44 | 3.97 | 5.32 | – |
| O=C(O)c1ccnc(C(=O)NS(=O)(=O)c2ccc3ccccc3c2)c1 | 15.2 | – | – | – | – |
| C=CC(=O)Nc1ccccc1S(=O)(=O)NC(=O)c1cc(C(=O)O)ccn1 | – | 21.2 | 19.2 | 21.6 | – |
| CC(=O)c1cc(S(=O)(=O)NC(=O)c2cc(C(=O)O)ccn2)ccc1O | – | 14.8 | 4.38 | 6.5 | – |
| O=C(O)c1cccc(C(=O)NS(=O)(=O)c2ccccc2[N+](=O)[O-])c1 | > 200 | – | – | – | – |
| O=C(CCl)Nc1cccc(S(=O)(=O)NC(=O)c2cc(C(=O)O)ccn2)c1 | – | 30.6 | 10.4 | 15 | – |
| O=C(O)c1ccnc(C(=O)NS(=O)(=O)c2ccccc2-c2ccccc2)c1 | 82.1 | – | – | – | – |
| O=C(O)c1ccnc(C(=O)NS(=O)(=O)c2ccccc2)c1 | 56.8 | 64.9 | 52.1 | 51.9 | – |
| O=C(O)c1ccnc(C(=O)NS(=O)(=O)c2ccccc2C(F)(F)F)c1 | > 200 | – | – | – | – |
| CC(=O)c1cc(S(=O)(=O)NC(=O)c2cc(C(=O)O)ccn2)c2ccccc2c1O | – | 8.56 | 5.52 | 5.81 | – |
| COC(=O)c1ccnc(C(=O)NS(=O)(=O)c2ccccc2[N+](=O)[O-])c1 | > 200 | – | – | – | – |
| N#Cc1cccc(S(=O)(=O)NC(=O)c2cc(C(=O)O)ccn2)c1 | > 200 | – | – | – | – |
| CN(C(=O)c1cc(C(=O)O)ccn1)S(=O)(=O)c1ccccc1[N+](=O)[O-] | > 200 | – | – | – | – |
| O=C(O)c1ccnc(C(=O)NS(=O)(=O)c2cccc(-c3ccccc3)c2)c1 | 15 | – | – | – | – |
